Laboratory results from US11505581B2, “Antigens and T cell epitopes from cockroach and methods of making and using same” (La Jolla Institute for Allergy and Immunology, priority 2015, dated 2022).

System: PBMC
Test: ELISPOT (IFNγ, IL-5, IL-10, IL-17, IL-21) of PBMC expanded 14 days with Bla g extract, then stimulated with peptides or peptide pools
Format: cell-based, human
Parameters: key to Average Magnitude of Response: spot forming cells (SFC) per 10^6 PBMC; Response Rate per Subject: unit not given here; key to % (percentage of subjects responding to given antigen) / SFC (mean magnitude of response): “—” denotes no response
Details: AR
Method: PBMC Isolation and Cell Cultures: PBMC (peripheral blood mononuclear cells) were isolated from 450 mL (one unit) of blood by density gradient centrifugation as described and cryopreserved. For in vitro expansion of PBMC for peptide screening, cells were cultured in RPMI1640 (Omega Scientific)+5% human AB serum (Gemini Bioscience), GlutaMAX (Gibco), and penicillin/streptomycin (Omega Scientific) at 2×10^6 per mL, stimulated with 10 ug/mL Bla g extract (Greer), and incubated at 37° C. in 5% CO2. Every three days, IL-2 and IL-7 (10 U/mL) were added to the cultures. Cells were harvested for peptide screening at day 14.
ELISPOT Assays: Production of IFNγ, IL-5, IL-17, IL-10, and IL-21 (as representative of TH1, TH2, TH17, TR1, and […], respectively) in response to peptide stimulation was measured by ELISPOT as described previously. […] In brief, 1×10^5 cells per well were incubated with peptide, peptide pool, or Bla g extract (10, 5, and 10 ug/ml, respectively) on anti-lymphokine antibody coated ELISPOT plates (Millipore #MSIPS4510) for 22 hours. Subsequently, secondary anti-lymphokine antibodies were added and incubated for 2 hours, washed, and avidin-peroxidase complex added for 1 hour. Plates were washed and spots developed with 3-amino-9-ethylcarbazole (Sigma #A6926) and Vector Blue (Vector #SK-5300) for IFNγ/IL-5 and IL-10/IL-17 dual plates or TMB (Sigma #T0565) for single IL-21. Criteria for peptide pool positivity were at least 100 spot forming cells (SFC) per 10^6 PBMC, p<0.05, and stimulation index≥2. Criteria for peptide positivity were identical except with a threshold of 20 SFCs.
We synthetized overlapping peptide sets of 15 amino acids in length overlapping by 10 residues and covering the entire sequence of known Bla g Allergens, i.e. Bla g 1-7, 9 and 11, referred from hereafter collectively as BLAGA. A total of 809 BLAGA peptides were arranged in pools, encompassing on average 20 peptides.
To assess T cell reactivity, we utilized a strategy applied to the definition of epitopes from various allergen sources^15,16 utilizing in vitro stimulation with allergen extracts. Here, PBMC from each subject were stimulated in vitro with Bla g extract. After 14 days, pools of overlapping 15-mer peptides from the BLAGA were tested for responses, and positive pools deconvoluted to identify the specific epitopes. As readout, we utilized ELISPOT assays specific for IL-5, IFNγ, IL-10, IL-17 and IL-21, chosen as representative of TH2, TH1, TR1, TH17 and TFH reactivity, respectively.

| Substance | % (percentage of subjects responding to given antigen) | SFC (mean magnitude of response) |
| --- | --- | --- |
| Receptor for activated protein kinase C [RACK1] | — | — |

Same assay, conditions: Asthmatic (combines IA, MMA, SA)

| Substance | % (percentage of subjects responding to given antigen) [%] | SFC (mean magnitude of response) [SFC] |
| --- | --- | --- |
| Receptor for activated protein kinase C [RACK1] | 9 | 19 |

Same assay, conditions: Controls

| Substance | % (percentage of subjects responding to given antigen) [%] | SFC (mean magnitude of response) [SFC] |
| --- | --- | --- |
| Receptor for activated protein kinase C [RACK1] | 2 | 30 |

Same assay, conditions: IA

| Substance | % (percentage of subjects responding to given antigen) [%] | SFC (mean magnitude of response) [SFC] |
| --- | --- | --- |
| Receptor for activated protein kinase C [RACK1] | 12 | 31 |

Same assay, conditions: MMA

| Substance | % (percentage of subjects responding to given antigen) [%] | SFC (mean magnitude of response) [SFC] |
| --- | --- | --- |
| Receptor for activated protein kinase C [RACK1] | 11 | 3 |

Same assay, conditions: SA

| Substance | % (percentage of subjects responding to given antigen) | SFC (mean magnitude of response) |
| --- | --- | --- |
| Receptor for activated protein kinase C [RACK1] | — | — |

Same assay, conditions: non-redundant epitopes; sensitized donors

| Substance | Average Magnitude of Response | Response Rate per Subject |
| --- | --- | --- |
| LKYFNMGVQKFWAFD | 19.8 | 8.6 |
| LNQEAHYQFDSIHKF | 22.6 | 2.9 |
| RVPFSHDDRLGFLTF | 34.2 | 7.1 |
| KIGEYKNMIAEGIID | 6.2 | 1.4 |
| NAIEFLNNIHDLLGI | 3.0 | 1.4 |
| EMIQHYTLDQVNQHK | 3.5 | 2.9 |
| QQFISSEMVEPKEAS | 6.8 | 2.9 |
| PAIKAWVAKRPPTDL | 18.7 | 10.0 |
| PNLKPSMPFGKTPVL | 4.2 | 2.9 |
| QKKWDPLKKETIPYY | 7.7 | 4.3 |
| AAIANYHYDADENSK | 26.2 | 11.4 |
| WVCEHRWRQIFNMVG | 33.9 | 4.3 |
| NVIYSQNSFLPRATT | 3.8 | 1.4 |
| KAAVHLLVAVKASKE | 4.4 | 1.4 |
| RCGRSMQGYPFNPCL | 20.4 | 10.0 |
| EAGFAKLAASDSKSL | 16.0 | 7.1 |
| KLAASDSKSLLRKYL | 43.8 | 7.1 |
| KNRTTIRGRTKFEGN (listed as Blattella germanica) | 81.7 | 2.9 |
| SEVTALNRQIGGTPI | 3.9 | 2.9 |
| DCGVAGFRVDAAKHM | 3.9 | 2.9 |
| GKDYILRVSQLGHTV | 3.4 | 4.3 |
| QKGYMVSSMTDLWEA | 13.9 | 8.6 |

| Substance | Average Magnitude of Response | Response Rate per Subject |
| --- | --- | --- |
| AKRFAKWALPLYNKP | 12.2 | 1.4 |
| AKGMMHMIKKGANGS | 18.7 | 2.9 |
| LNIFTNNLGRINTHV (listed as Blattella germanica) | 57.6 | 4.3 |
| WCNEEDHLRIISMQM | 13.1 | 7.1 |
| HHQRLFMVQSLERVV | 3.1 | 2.9 |
| RLFGAEVGWLALHHN | 35.5 | 1.4 |
| NGGYLAAGKLTWADF (listed as Blattella germanica) | 58.5 | 5.7 |
| LNDYILPAPYEIYPW | 3.0 | 2.9 |
| LNTYYSYYYFNYPTF | 4.1 | 2.9 |
| VPIMNIYSAFEFDPN | 18.5 | 4.3 |
| ISDFRAAIANYHYDA | 216.2 | 18.6 |
| MAPSYKLTYCPVKAL | 8.8 | 4.3 |
| AGTWSALNSIQQFIS | 15.7 | 7.1 |
| FSQMYHAQLAFSTAF | 3.4 | 2.9 |
| MIVDTISDFRAAIAN (listed as Blattella germanica) | 91.4 | 7.1 |
| NLEIDMIVDTISDFR | 19.1 | 2.9 |
| KEFANVVRVVRHTSK | 3.3 | 2.9 |
| KALQNAESEVAALNR | 6.0 | 1.4 |
| LDYLNHMAKEDLVAN | 13.0 | 10.0 |
| TGILYKARLSLDRNE | 4.3 | 2.9 |
| VLGLPAIKAWVAKRP | 48.5 | 14.3 |
| HDDRLGFLTFCPTNL (listed as Blattella germanica) | 83.1 | 7.1 |

| Substance | Average Magnitude of Response | Response Rate per Subject |
| --- | --- | --- |
| QIIAIATDYLANDAE | 7.5 | 2.9 |
| PKSMLLNIFTNNLGR (listed as Blattella germanica) | 52.5 | 7.1 |
| CPTNLGTTVRASVRI | 11.2 | 4.3 |
| VLEKLEAGFAKLAAS (listed as Blattella germanica) | 65.5 | 14.3 |
| FGSTLLDVIQSGLEN | 26.1 | 8.6 |
| LVYPTSLGFPLKLVL | 4.4 | 2.9 |
| GIRIYVDVVLNQMSG (listed as Blattella germanica) | 62.5 | 4.3 |
| FLLSYGEKDFEDYRF | 8.5 | 8.6 |
| RSEERLATATAKLAE | 13.3 | 1.4 |
| HTKLSSSSSITLTLP | 6.2 | 5.7 |
| RGNNAIKWLVNFGVG | 15.0 | 5.7 |
| NIACLLHNKYDSTKS (listed as Blattella germanica) | 61.0 | 2.9 |
| SINLMFSQMYHAQLA | 4.3 | 1.4 |
| KFEGNKFTIDYNDKG | 14.2 | 4.3 |
| PLKKETIPYYTKKFD | 14.2 | 5.7 |
| FRPWWERYQLVSYNL | 10.8 | 4.3 |
| ALREKVLGLPAIKAW (listed as Blattella germanica) | 77.1 | 12.9 |
| YLGKQFGLSGKDDWE | 22.6 | 8.6 |
| DRRGEMFYYTRQQLY | 3.5 | 1.4 |
| PAYFKMNSPSLWKYN (listed as Blattella germanica) | 56.1 | 4.3 |

Same assay, conditions: sensitized subjects; 2-week extract stimulation

| Substance | T cell reactivity (cytokine release) to NBGA, in words |
| --- | --- |
| Receptor for activated protein kinase C [RACK1] | Significant reactivity |
